From US20120264735A1 (priority 2009, published 2012)

Target: T1, c-Met kinase (recombinant c-Met) (Homo sapiens, UniProt P08581)
T1 construct: 0.27 nM recombinant c-Met
Experiment: In vitro kinase assay I (homogeneous time-resolved fluorescence tyrosine kinase assay)
Type: biochemical
Procedure: The kinase activities of c-Met are measured using a modified version of the homogeneous-time-resolved tyrosine kinase assay described by Park et al. (1999, Anal. Biochem. 269:94-104).
The procedure for determining the potency of a compound to inhibit c-Met kinase comprises the following steps: • 1. Prepare 3-fold serial diluted compound solutions in 100% dimethyl sulfoxide (DMSO) at 20× of the desired final concentrations in a 384-well plate. • 2. Prepare a master reaction mix containing 6.67 mM MgCl2, 133.3 mM NaCl, 66.7 mM Tris-HCl (pH 7.4), 0.13 mg/ml BSA, 2.67 mM dithiothreitol, 0.27 nM recombinant c-Met and 666.7 nM biotinylated synthetic peptide substrate (biotin-ahx-EQEDEPEGDYFEWLE-CONH2) (SEQ.ID.NO.:1). • 3. In a black assay plate, add 1.5 μl of compound solution (or DMSO) and 22.5 μl of master reaction mix per well. Initiate the kinase reaction by adding 6 μl of 0.25 mM MgATP per well. Allow the reactions to proceed for 60 min at room temperature. The final conditions for the reaction are 0.2 nM c-Met, 0.5 μM substrate, 50 μM MgATP, 5 mM MgCl2, 100 mM NaCl, 2 mM DTT, 0.1 mg/ml BSA, 50 mM Tris (pH 7.4) and 5% DMSO. • 4. Stop the kinase reaction with 30 μl of Stop/Detection buffer containing 10 mM EDTA, 25 mM HEPES, 0.1% TRITON X-100, 0.750 nM Eu-chelate labeled anti-phosphotyrosine antibody PY20 (cat. #AD0067, PerkinElmer) and 50 μg/ml Streptavidin-allophycocyanin conjugate (cat. #PJ25S, Prozyme). • 5. Read HTRF signals on a Victor reader (PerkinElmer) in HTRF mode after 60-min incubation at room temperature in the dark. • 6. IC50 is determined by fitting the observed relationship between compound concentration and HTRF signal with a 4-parameter logistic equation. II. GTL-16 pY1349 Cell-Based Assay

T1 sequence (P08581 25-1390): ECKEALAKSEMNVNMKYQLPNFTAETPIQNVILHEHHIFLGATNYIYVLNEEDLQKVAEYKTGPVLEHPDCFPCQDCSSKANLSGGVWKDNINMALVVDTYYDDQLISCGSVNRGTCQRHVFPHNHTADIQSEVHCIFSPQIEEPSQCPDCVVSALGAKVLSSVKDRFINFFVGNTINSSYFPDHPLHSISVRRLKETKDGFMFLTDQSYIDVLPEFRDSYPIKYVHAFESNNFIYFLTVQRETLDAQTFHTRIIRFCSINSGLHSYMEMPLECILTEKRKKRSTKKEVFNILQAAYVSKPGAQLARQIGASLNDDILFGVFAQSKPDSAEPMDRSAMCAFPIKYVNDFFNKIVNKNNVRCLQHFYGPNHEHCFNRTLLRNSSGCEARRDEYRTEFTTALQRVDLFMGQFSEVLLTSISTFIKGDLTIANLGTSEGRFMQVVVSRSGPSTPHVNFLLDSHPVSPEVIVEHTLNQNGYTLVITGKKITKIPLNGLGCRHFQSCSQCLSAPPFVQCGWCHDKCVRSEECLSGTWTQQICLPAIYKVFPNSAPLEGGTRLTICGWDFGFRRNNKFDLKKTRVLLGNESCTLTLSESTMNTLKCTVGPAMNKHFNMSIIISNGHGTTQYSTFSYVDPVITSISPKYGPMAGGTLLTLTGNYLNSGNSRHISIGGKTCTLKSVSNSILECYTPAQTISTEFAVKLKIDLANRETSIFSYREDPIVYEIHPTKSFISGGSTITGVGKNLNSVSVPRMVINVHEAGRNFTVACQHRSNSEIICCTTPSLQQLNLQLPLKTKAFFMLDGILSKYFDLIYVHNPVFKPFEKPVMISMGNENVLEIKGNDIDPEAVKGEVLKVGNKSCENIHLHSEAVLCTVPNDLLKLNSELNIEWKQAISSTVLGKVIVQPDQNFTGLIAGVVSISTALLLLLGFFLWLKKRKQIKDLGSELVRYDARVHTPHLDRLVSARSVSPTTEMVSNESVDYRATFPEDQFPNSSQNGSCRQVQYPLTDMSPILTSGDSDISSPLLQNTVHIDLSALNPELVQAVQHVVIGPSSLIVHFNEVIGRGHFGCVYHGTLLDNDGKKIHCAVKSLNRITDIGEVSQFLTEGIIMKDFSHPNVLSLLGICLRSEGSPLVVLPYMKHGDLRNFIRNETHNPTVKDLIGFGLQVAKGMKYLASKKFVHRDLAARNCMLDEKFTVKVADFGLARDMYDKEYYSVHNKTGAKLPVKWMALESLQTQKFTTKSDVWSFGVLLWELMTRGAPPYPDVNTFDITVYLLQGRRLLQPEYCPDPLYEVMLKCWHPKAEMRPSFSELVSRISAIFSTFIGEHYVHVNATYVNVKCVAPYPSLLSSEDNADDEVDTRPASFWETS

Row | IC50 | Structure (SMILES)
1 | < 100 nM | Cn1cc(-n2ccc(=O)c(Cc3cccc(-c4ncc(N5CCC6CCCCC6C5)cn4)c3)n2)cn1 (mixture of isomers) [Example 443, 1-(1-methyl-1H-pyrazol-4-yl)-3-{3-[5-(octahydroiso-quinolin-2(1H)-yl)pyrimidin-2-yl]benzyl}pyridazin-4(1H)-one]
2 | < 100 nM | CC1CC1COC(=O)Nc1cccc(Cc2nn(-c3cnn(C)c3)ccc2=O)c1 (mixture of isomers) [Example 574, (2-methylcyclopropyl)methyl (3-{[1-(1-methyl-1H-pyrazol-4-yl)-4-oxo-1,4-dihydropyridazin-3-yl]methyl}phenyl)carbamate]
3 | < 100 nM | Cn1cc(-n2ccc(=O)c(Cc3cccc(-c4ncc(C5CCCO5)cn4)c3)n2)cn1 (racemic) [Example 198, rac-1-(1-Methyl-1H-pyrazol-4-yl)-3-{3-[5-(tetrahydrofuran-2-yl)pyrimidin-2-yl]benzyl}pyridazin-4(1H)-one]
4 | < 100 nM | CCOCc1cnc(-c2cccc(C(C)c3nn(-c4cnn(C)c4)ccc3=O)c2)nc1 (racemic) [Example 221, rac-3-(1-{3-[5-(ethoxymethyl)pyrimidin-2-yl]phenyl}ethyl)-1-(1-methyl-1H-pyrazol-4-yl)pyridazin-4(1H)-one]
5 | < 100 nM | CCOc1cnc(-c2cccc(C(C)c3nn(-c4cccc(C#N)c4)ccc3=O)c2)nc1 (racemic) [Example 224, rac-3-[3-{1-[3-(5-ethoxypyrimidin-2-yl)phenyl]ethyl}-4-oxopyridazin-1(4H)-yl]benzonitrile]
6 | < 100 nM | CCC(c1cccc(-c2ncc(OC)cn2)c1)c1nn(-c2cnn(C)c2)ccc1=O (racemic) [Example 225, rac-3-{1-[3-(5-methoxypyrimidin-2-yl)phenyl]propyl}-1-(1-methyl-1H-pyrazol-4-yl)pyridazin-4(1H)-one]
7 | 1000 to 3000 nM | COCCOc1cnc(-c2cccc(C(CCO)c3nn(-c4cnn(C)c4)ccc3=O)c2)nc1 (racemic) [Example 253, rac-3-(3-Hydroxy-1-{3-[5-(2-methoxyethoxy)pyrimidin-2-yl]phenyl}propyl)-1-(1-methyl-1H-pyrazol-4-yl)pyridazin-4(1H)-one]
8 | 1000 to 3000 nM | COc1cnc(-c2cccc(C(CO)c3nn(-c4cnn(C)c4)ccc3=O)c2)nc1 (racemic) [Example 254, rac-3-{2-Hydroxy-1-[3-(5-methoxypyrimidin-2-yl)phenyl]ethyl}-1-(1-methyl-1H-pyrazol-4-yl)pyridazin-4(1H)-one]
9 | < 100 nM | Cn1cc(-n2ccc(=O)c(Cc3cccc(-c4ncc(OCC5CCCO5)cn4)c3)n2)cn1 (racemic) [Example 260, rac-1-(1-methyl-1H-pyrazol-4-yl)-3-{3-[5-(tetrahydrofuran-2-ylmethoxy)pyrimidin-2-yl]benzyl}pyridazin-4(1H)-one]
10 | < 100 nM | Cn1cc(-n2ccc(=O)c(Cc3cccc(-c4ncc(OCC5CCOC5)cn4)c3)n2)cn1 (racemic) [Example 266, rac-1-(1-methyl-1H-pyrazol-4-yl)-3-{3-[5-(tetrahydrofuran-3-ylmethoxy)pyrimidin-2-yl]benzyl}pyridazin-4(1H)-one]
11 | < 100 nM | Cn1cc(-n2ccc(=O)c(Cc3cccc(-c4ncc(OCC5CCOC(C)(C)C5)cn4)c3)n2)cn1 (racemic) [Example 269, rac-3-(3-{5-[(2,2-dimethyltetrahydro-2H-pyran-4-yl)methoxy]pyrimidin-2-yl}benzyl)-1-(1-methyl-1H-pyrazol-4-yl)pyridazin-4(1H)-one]
12 | < 100 nM | Cn1cc(-n2ccc(=O)c(Cc3cccc(-c4ncc(OC5CCOC5)cn4)c3)n2)cn1 (racemic) [Example 276, rac-1-(1-methyl-1H-pyrazol-4-yl)-3-{3-[5-(tetrahydrofuran-3-yloxy)pyrimidin-2-yl]benzyl}pyridazin-4(1H)-one]
13 | < 100 nM | CCn1cc(-n2ccc(=O)c(Cc3cccc(-c4ncc(OCC5CCO5)cn4)c3)n2)cn1 (racemic) [Example 308, rac-1-(1-ethyl-1H-pyrazol-4-yl)-3-{3-[5-(oxetan-2-ylmethoxy)pyrimidin-2-yl]benzyl}pyridazin-4(1H)-one]
14 | < 100 nM | CCn1cc(-n2ccc(=O)c(Cc3cccc(-c4ncc(OC5CCOC5)cn4)c3)n2)cn1 (racemic) [Example 309, rac-1-(1-ethyl-1H-pyrazol-4-yl)-3-{3-[5-(tetrahydrofuran-3-yloxy)pyrimidin-2-yl]benzyl}pyridazin-4(1H)-one]
15 | < 100 nM | CCn1cc(-n2ccc(=O)c(Cc3cccc(-c4ncc(OCC5CCCO5)cn4)c3)n2)cn1 (racemic) [Example 310, rac-1-(1-ethyl-1H-pyrazol-4-yl)-3-{3-[5-(tetrahydrofaran-2-ylmethoxy)pyrimidin-2-yl]benzyl}pyridazin-4(1H)-one]
16 | < 100 nM | CCn1cc(-n2ccc(=O)c(Cc3cccc(-c4ncc(OCC5COCCO5)cn4)c3)n2)cn1 (racemic) [Example 311, rac-3-{3-[5-(1,4-dioxan-2-ylmethoxy)pyrimidin-2-yl]benzyl}-1-(1-ethyl-1H-pyrazol-4-yl)pyridazin-4(1H)-one]
17 | < 100 nM | O=c1ccn(-c2ccc(F)c(F)c2)nc1Cc1cccc(-c2ncc(OC3CCOC3)cn2)c1 (racemic) [Example 327, rac-1-(3,4-difluorophenyl)-3-{3-[5-(tetrahydrofuran-3-yloxy)pyrimidin-2-yl]benzyl}pyridazin-4(1H)-one]

The remaining lines, values behind:

Row | Structure (SMILES) | IC50
18 | Cn1cc(-n2ccc(=O)c(Cc3ccc4ncc(OCC5CCOC5)cc4c3)n2)cn1 (racemic) [Example 64, rac-1-(1-methyl-1H-pyrazol-4-yl)-3-{[3-(tetrahydrofuran-3-ylmethoxy)quinolin-6-yl]methyl}pyridazin-4(1H)-one] | < 100 nM
19 | Cn1cc(-n2ccc(=O)c(Cc3cccc(-c4ncn(CC5CCOC5)n4)c3)n2)cn1 (racemic) [Example 79, rac-1-(1-methyl-1H-pyrazol-4-yl)-3-{3-[1-(tetrahydrofuran-3-ylmethyl)-1H-1,2,4-triazol-3-yl]benzyl}pyridazin-4(1H)-one] | < 100 nM
20 | CCOC(=O)Nc1cccc(Cc2nn(-c3cnn(C4CCOC4)c3)ccc2=O)c1 (racemic) [Example 97, rac-ethyl [3-({4-oxo-1-[1-(tetrahydrofuran-3-yl)-1H-pyrazol-4-yl]-1,4-dihydropyridazin-3-yl}methyl)phenyl]carbamate] | < 100 nM
21 | CCCOC(=O)Nc1cccc(Cc2nn(-c3cnn(C4CCOC4)c3)ccc2=O)c1 (racemic) [Example 98, rac-propyl [3-({4-oxo-1-[1-(tetrahydrofuran-3-yl)-1H-pyrazol-4-yl]-1,4-dihydropyridazin-3-yl}methyl)phenyl]carbamate] | < 100 nM
22 | CC(C)COC(=O)Nc1cccc(Cc2nn(-c3cnn(C4CCOC4)c3)ccc2=O)c1 (racemic) [Example 99, rac-2-methylpropyl [3-({4-oxo-1-[1-(tetrahydrofuran-3-yl)-1H-pyrazol-4-yl]-1,4-dihydropyridazin-3-yl}methyl)phenyl]carbamate] | < 100 nM
23 | N#Cc1cncc(-n2ccc(=O)c(Cc3cccc(NC(=O)OCC4CCOC4)c3)n2)c1 (racemic) [Example 130, rac-tetrahydrofuran-3-ylmethyl (3-{[1-(5-cyanopyridin-3-yl)-4-oxo-1,4-dihydropyridazin-3-yl]methyl}phenyl)carbamate] | < 100 nM
24 | N#Cc1cc(F)cc(-n2ccc(=O)c(Cc3cccc(NC(=O)OCC4CCOC4)c3)n2)c1 (racemic) [Example 131, rac-tetrahydrofuran-3-ylmethyl (3-{[1-(3-cyano-5-fluorophenyl)-4-oxo-1,4-dihydropyridazin-3-yl]methyl}phenyl)carbamate] | < 100 nM
25 | N#Cc1ccc(-n2ccc(=O)c(Cc3cccc(NC(=O)OCC4CCOC4)c3)n2)cc1 (racemic) [Example 139, rac-tetrahydrofuran-3-ylmethyl (3-{[1-(4-cyanophenyl)-4-oxo-1,4-dihydropyridazin-3-yl]methyl}phenyl)carbamate] | < 100 nM
26 | N#Cc1cc(Cl)cc(-n2ccc(=O)c(Cc3cccc(NC(=O)OCC4CCOC4)c3)n2)c1 (racemic) [Example 141, rac-tetrahydrofuran-3-ylmethyl (3-{[1-(3-chloro-5-cyanophenyl)-4-oxo-1,4-dihydropyridazin-3-yl]methyl}phenyl)carbamate] | < 100 nM
27 | COC(C)c1cnc(-c2cccc(Cc3nn(-c4cnn(C)c4)ccc3=O)c2)nc1 (racemic) [Example 166, rac-3-{3-[5-(1-methoxyethyl)pyrimidin-2-yl]benzyl}-1-(1-methyl-1H-pyrazol-4-yl)pyridazin-4(1H)-one] | 100 to 1000 nM
28 | Cn1cc(-n2ccc(=O)c(Cc3cccc(-c4ncc(C5C=CCO5)cn4)c3)n2)cn1 (racemic) [Example 174, rac-3-{3-[5-(2,5-Dihydrofuran-2-yl)pyrimidin-2-yl]benzyl}-1-(1-methyl-1H-pyrazol-4-yl)pyridazin-4(1H)-one] | < 100 nM
